This is an account of results in patent US4912223A, “1,4-Dihydropyridines” (Nelson Research & Development Co., priority 1988, dated 1990).

SMILES strings stand for the structures. Where a name gives a salt, the structure may show the parent alone.

For data set [1], the system named is Systolic arterial blood pressure. Nature of the data set: Hypotensive Activity (oral), indirect tail cuff method in spontaneous hypertensive rats (SHR). The format is in vivo, spontaneous hypertensive rates (SHR). The settings on record: 10 mmol/Kg in polyethylene glycol. The protocol:
Systolic arterial blood pressure was measured with the indirect tail cuff method in spontaneous hypertensive rates (SHR). The change in baseline pressure (170-210 mm Hg) was recorded at various time points following oral administration of 10 mmol/Kg of the test compound in polyethylene glycol.

In data set [2] the target is T1, DHP Site of the Calcium Channel (Oryctolagus cuniculus, UniProt P07293).
T1 construct: Washed rabbit skeletal muscle membranes (fraction 2-8X); from tissue; host or cells: rabbit skeletal muscle membranes (fraction 2-8X)
The experiment in a line: Binding Assay for Drugs Acting at the DHP Site of the Calcium Channel (3H-nitrendipine displacement). The settings on record: washed rabbit skeletal muscle membranes, 0.5×10^-9 M 3H-nitrendipine, 30 min, 25° C., pH 7.4. Here is the method:
The incubation tubes were rapidly chilled in ice and the contents filtered through Whatman GF/B filters on a Millipore manifold, and the filters were placed in scintillation counting vials with 8 ml of Cytoscint cocktail, disrupted mechanically by shaking for 30 minutes and counted.
Drugs which interact at the DHP site will reduce this specific binding in a dose-dependent manner. The assays for the compounds of this invention were made with logarithmically spaced concentrations, the data were plotted on a probit-concentration plot, and the IC50 read off. The KI of the drug was calculated by standard techniques.

Data set [3] in a line: Water solubility of salt (dissolution in aqueous NaOH, freeze-dried). It counts as physicochemical. The protocol:
A suspension of 50 mg (0.099 mmol) of the product of Example 2C in 30 ml of water and 1.0 ml (0.099 ) of 0.1N NaOH was stirred at ambient temperature for 15 hours.
All material was dissolved at this time. The mixture was freeze-dried to give 50 mg (quantitative yield) of a foamy water soluble solid: m.p. 215°-220° C.
A suspension of 50 mg (0.076 mmol) of the product of Example 6 in 30 ml of water and 1.52 ml (0.152 mmol) of 0.1N NaOH was stirred at ambient temperature for 15 hours. The material was totally dissolved at this time. The mixture was freeze dried to give 50 mg (quantitative yield) of a foamy water-soluble solid: m.p. 225°-232° C.

T1 sequence (P07293 1-1664 limits assumed): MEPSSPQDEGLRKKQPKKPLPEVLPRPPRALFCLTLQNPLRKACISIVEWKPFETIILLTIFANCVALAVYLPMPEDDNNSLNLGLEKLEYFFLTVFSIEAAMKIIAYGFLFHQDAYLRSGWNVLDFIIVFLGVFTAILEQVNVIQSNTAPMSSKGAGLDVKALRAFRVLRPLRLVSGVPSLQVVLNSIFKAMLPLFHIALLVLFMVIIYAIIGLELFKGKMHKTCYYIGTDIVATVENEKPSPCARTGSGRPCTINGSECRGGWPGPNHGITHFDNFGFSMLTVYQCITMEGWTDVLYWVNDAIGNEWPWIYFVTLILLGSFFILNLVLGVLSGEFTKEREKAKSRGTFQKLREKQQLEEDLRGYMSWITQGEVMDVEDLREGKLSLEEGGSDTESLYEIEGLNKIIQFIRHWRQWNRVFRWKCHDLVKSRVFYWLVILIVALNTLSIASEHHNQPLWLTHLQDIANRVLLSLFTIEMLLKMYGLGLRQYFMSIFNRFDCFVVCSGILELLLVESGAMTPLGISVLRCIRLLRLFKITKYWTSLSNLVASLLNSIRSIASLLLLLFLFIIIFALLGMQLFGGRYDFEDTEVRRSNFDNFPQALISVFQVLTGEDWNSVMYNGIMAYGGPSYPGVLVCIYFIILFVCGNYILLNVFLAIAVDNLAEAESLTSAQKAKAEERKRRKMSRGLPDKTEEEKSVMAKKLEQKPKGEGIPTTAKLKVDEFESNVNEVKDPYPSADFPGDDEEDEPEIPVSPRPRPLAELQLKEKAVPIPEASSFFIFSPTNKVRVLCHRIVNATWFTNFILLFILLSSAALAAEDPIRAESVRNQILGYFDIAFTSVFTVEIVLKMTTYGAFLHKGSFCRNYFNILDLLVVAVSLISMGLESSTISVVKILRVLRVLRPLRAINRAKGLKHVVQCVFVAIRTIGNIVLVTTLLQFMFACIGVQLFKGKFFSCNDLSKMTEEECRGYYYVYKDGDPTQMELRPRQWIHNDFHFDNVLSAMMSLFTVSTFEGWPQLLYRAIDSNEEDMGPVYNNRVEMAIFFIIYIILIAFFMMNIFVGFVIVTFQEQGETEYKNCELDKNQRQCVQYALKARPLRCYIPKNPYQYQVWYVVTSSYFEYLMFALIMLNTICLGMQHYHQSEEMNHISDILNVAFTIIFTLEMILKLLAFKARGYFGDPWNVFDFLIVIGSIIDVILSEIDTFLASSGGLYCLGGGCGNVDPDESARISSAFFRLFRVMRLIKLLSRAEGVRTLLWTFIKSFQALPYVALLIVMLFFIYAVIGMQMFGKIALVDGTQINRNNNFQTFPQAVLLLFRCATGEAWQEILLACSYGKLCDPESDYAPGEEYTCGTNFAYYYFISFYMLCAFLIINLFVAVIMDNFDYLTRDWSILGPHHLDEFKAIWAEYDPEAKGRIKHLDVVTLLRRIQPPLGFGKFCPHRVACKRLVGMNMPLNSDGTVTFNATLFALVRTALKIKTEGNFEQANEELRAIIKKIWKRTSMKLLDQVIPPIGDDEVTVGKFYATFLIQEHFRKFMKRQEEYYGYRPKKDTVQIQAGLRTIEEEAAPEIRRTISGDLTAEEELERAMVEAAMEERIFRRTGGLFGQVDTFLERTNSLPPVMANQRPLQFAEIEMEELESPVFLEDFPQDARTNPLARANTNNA
T1 sequence (P13806 27-960 partner limits assumed): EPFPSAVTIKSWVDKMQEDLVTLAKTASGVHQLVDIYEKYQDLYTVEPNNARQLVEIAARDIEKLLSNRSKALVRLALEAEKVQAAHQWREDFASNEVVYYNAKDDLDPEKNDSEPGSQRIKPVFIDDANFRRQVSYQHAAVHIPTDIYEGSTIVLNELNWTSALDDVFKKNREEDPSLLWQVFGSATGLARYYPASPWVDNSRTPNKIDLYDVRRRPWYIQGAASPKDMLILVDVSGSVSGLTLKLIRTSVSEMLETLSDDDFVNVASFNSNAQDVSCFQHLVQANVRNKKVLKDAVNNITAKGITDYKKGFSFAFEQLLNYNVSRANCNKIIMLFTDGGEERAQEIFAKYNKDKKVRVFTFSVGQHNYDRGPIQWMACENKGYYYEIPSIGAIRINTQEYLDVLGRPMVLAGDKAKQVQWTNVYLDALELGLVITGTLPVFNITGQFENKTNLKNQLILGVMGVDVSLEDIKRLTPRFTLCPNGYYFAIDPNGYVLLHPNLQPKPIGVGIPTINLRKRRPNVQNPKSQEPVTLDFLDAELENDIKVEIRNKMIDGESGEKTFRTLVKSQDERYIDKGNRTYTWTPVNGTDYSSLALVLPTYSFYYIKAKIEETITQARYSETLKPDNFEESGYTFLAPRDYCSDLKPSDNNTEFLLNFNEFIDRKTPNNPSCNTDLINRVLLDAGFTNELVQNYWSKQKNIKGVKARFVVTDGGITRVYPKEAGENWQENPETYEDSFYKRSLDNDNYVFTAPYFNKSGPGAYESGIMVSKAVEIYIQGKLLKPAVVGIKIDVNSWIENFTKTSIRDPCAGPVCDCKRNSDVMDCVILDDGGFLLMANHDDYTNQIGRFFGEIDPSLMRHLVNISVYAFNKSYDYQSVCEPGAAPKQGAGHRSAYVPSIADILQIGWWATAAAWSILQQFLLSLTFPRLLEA
T1 sequence (P13806 961-1106 partner limits assumed): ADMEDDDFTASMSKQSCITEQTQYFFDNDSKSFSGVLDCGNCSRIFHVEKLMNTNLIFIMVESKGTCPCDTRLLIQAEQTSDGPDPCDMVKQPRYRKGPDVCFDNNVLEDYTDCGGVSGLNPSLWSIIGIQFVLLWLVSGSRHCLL
T1 sequence (P19517 whole entry partner): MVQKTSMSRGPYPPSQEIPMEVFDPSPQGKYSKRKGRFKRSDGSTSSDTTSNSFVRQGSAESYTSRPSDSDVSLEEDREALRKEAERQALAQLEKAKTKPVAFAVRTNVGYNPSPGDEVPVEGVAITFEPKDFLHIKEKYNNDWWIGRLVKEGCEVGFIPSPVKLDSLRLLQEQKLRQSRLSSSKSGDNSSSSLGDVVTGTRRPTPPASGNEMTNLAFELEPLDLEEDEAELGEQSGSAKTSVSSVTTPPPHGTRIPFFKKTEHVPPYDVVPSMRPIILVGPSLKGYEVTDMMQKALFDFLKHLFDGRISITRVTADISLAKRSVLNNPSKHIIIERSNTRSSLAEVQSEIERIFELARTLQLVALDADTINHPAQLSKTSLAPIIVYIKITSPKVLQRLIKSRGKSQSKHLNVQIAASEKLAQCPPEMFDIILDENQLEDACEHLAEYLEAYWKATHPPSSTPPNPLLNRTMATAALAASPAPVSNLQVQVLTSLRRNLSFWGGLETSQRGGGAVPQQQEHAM
T1 sequence (P19518 whole entry partner): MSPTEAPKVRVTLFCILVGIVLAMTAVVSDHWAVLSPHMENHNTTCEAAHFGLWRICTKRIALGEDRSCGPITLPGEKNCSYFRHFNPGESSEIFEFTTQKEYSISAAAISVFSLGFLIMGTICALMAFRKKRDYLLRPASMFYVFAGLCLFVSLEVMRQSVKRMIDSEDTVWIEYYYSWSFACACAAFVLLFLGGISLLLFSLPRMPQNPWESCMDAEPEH

For the compound `COC(=O)C1=C(C)NC(C)=C(C(=O)OCC2COC(C)(C)O2)C1c1cccc([N+](=O)[O-])c1` (stereo not drawn) [Example 1B, 2,6-Dimethyl-3-(2,2-dimethyl-1,3-dioxolan-4-carbomethoxy)-4-(3-nitrophenyl)-5-carbomethoxy-1,4 dihydropyridine], in data set [1], the “Mean Change (Decrease) in Systolic Blood Pressure, 120 min after drug administration” value is 36 mm Hg; the “Mean Change (Decrease) in Systolic Blood Pressure, 240 min after drug administration” value is 34 mm Hg; the “Mean Change (Decrease) in Systolic Blood Pressure, 360 min after drug administration” value was 19 mm Hg. The Ki in data set [2] was determined as 4.5 nM.

Take `COC(=O)C1=C(C)NC(C)=C(C(=O)OCC2OC(=O)C3OC(C)(C)OC23)C1c1cccc([N+](=O)[O-])c1` (stereo not drawn) [Example 2C, 2,6-Dimethyl-3-(carboriboxy-gamma-lactone dimethylketal)-4-(3-nitrophenyl)-5-carbomethoxy-1,4-dihydropyridine]: in data set [1], the “Mean Change (Decrease) in Systolic Blood Pressure, 12 min after drug administration” value worked out at 40 mm Hg; the “Mean Change (Decrease) in Systolic Blood Pressure, 30 min after drug administration” value amounted to 37 mm Hg; the “Mean Change (Decrease) in Systolic Blood Pressure, 60 min after drug administration” value was found to be 31 mm Hg; the “Mean Change (Decrease) in Systolic Blood Pressure, 120 min after drug administration” value was 29 mm Hg. Also, in data set [1], the “Mean Change (Decrease) in Systolic Blood Pressure, 240 min after drug administration” value came to 22 mm Hg and the “Mean Change (Decrease) in Systolic Blood Pressure, 360 min after drug administration” value was 20 mm Hg. Moreover, in data set [2], the Ki worked out at 30 nM.

Turning to `COC(=O)C1=C(C)NC(C)=C(C(=O)OCC(O)CO)C1c1cccc([N+](=O)[O-])c1` (stereo not drawn) [Example 4, 2,6-Dimethyl-5-carbomethoxy-4-(3-nitrophenyl)-3-(2,3 dihydroxycarbopropoxy)-1,4-dihydropyridine], in data set [1], the “Mean Change (Decrease) in Systolic Blood Pressure, 12 min after drug administration” value was determined as 13 mm Hg; the “Mean Change (Decrease) in Systolic Blood Pressure, 30 min after drug administration” value was 16 mm Hg; the “Mean Change (Decrease) in Systolic Blood Pressure, 60 min after drug administration” value amounted to 18 mm Hg; the “Mean Change (Decrease) in Systolic Blood Pressure, 120 min after drug administration” value is on record as 12 mm Hg. In addition, in data set [1], the “Mean Change (Decrease) in Systolic Blood Pressure, 240 min after drug administration” value stood at 6 mm Hg and the “Mean Change (Decrease) in Systolic Blood Pressure, 360 min after drug administration” value is on record as 4 mm Hg. In addition, the Ki in data set [2] worked out at 140 nM.

`COC(=O)C1=C(C)NC(C)=C(C(=O)OCC2COC3(CCCC3)O2)C1c1cccc([N+](=O)[O-])c1` (stereo not drawn) [Example 4B, 2,6-Dimethyl-5-carbomethoxy-4-(3-nitrophenyl)-3-(1,4-dioxaspiro[4,4]non-2-yl-carbomethoxy)-1,4-dihydropyridine]: in data set [1], the “Mean Change (Decrease) in Systolic Blood Pressure, 120 min after drug administration” value is 17 mm Hg; the “Mean Change (Decrease) in Systolic Blood Pressure, 240 min after drug administration” value stood at 23 mm Hg; the “Mean Change (Decrease) in Systolic Blood Pressure, 360 min after drug administration” value stood at 27 mm Hg. Besides, in data set [2], the Ki amounted to 2.3 nM.

Turning to `CC1=C(C(=O)OCC2COC(C)(C)O2)C(c2cccc([N+](=O)[O-])c2)C(C(=O)OCC2COC(C)(C)O2)=C(C)N1` (stereo not drawn) [Example 5, 2,6-Dimethyl-3,5-di-(2,2-dimethyl-1,3-dioxolan-4-carbomethoxy)-4-(3-nitrophenyl)-1,4-dihydropyridine], in data set [1], the “Mean Change (Decrease) in Systolic Blood Pressure, 12 min after drug administration” value was determined as 17 mm Hg; the “Mean Change (Decrease) in Systolic Blood Pressure, 30 min after drug administration” value came to 19 mm Hg; the “Mean Change (Decrease) in Systolic Blood Pressure, 60 min after drug administration” value stood at 13 mm Hg; the “Mean Change (Decrease) in Systolic Blood Pressure, 120 min after drug administration” value is on record as 17 mm Hg. Moreover, in data set [1], the “Mean Change (Decrease) in Systolic Blood Pressure, 240 min after drug administration” value was 19 mm Hg and the “Mean Change (Decrease) in Systolic Blood Pressure, 360 min after drug administration” value is recorded as 19 mm Hg. In addition, in data set [2], the Ki was 29 nM.

Take `CC1=C(C(=O)OCC2OC(=O)C3OC(C)(C)OC23)C(c2cccc([N+](=O)[O-])c2)C(C(=O)OCC2OC(=O)C3OC(C)(C)OC23)=C(C)N1` (stereo not drawn) [Example 6, 2,6-Dimethyl-3,5-di(carboriboxy-gamma-lactone dimethylketal)-4-(3-nitrophenyl)-1,4-dihydropyridine]: in data set [2], the inhibition constant (Ki) turned out to be 93 nM.

Turning to `COC(=O)C1=C(C)NC(C)=C(C(=O)OCC(O)C2OC(C)(C)OC2C(=O)O)C1c1cccc([N+](=O)[O-])c1` (stereo not drawn) [Example 11, 2,6-Dimethyl-3-(carboribonic acid-gamma-lactone dimethylketal)(3-nitrophenyl)-5-(carbomethoxy)-1,4-dihydropyridine, sodium salt], in data set [3], the “solubility in water (in words)” value is “water soluble”.

For `CC1=C(C(=O)OCC(O)C2OC(C)(C)OC2C(=O)O)C(c2cccc([N+](=O)[O-])c2)C(C(=O)OCC(O)C2OC(C)(C)OC2C(=O)O)=C(C)N1` (stereo not drawn) [Example 13, 2,6-Dimethyl-3,5-di-(carboribonic acid-gamma-lactone dimethylketal)-4-(3-nitrophenyl-1,4-dihydropyridine, disodium salt], in data set [3], the “solubility in water (in words)” value is “water-soluble”.

Consider `COC(=O)C1=C(C)NC(C)=C(C(=O)OC)C1c1ccccc1[N+](=O)[O-]` [Nifedipine, nifedipine, reference compound], for which, in data set [1], the “Mean Change (Decrease) in Systolic Blood Pressure, 12 min after drug administration” value was determined as 6 mm Hg; the “Mean Change (Decrease) in Systolic Blood Pressure, 30 min after drug administration” value was 36 mm Hg; the “Mean Change (Decrease) in Systolic Blood Pressure, 60 min after drug administration” value is 20 mm Hg; the “Mean Change (Decrease) in Systolic Blood Pressure, 120 min after drug administration” value is 11 mm Hg.

A word on the Ki: it is a dissociation constant, usually derived from enzyme kinetics or from competition with a known ligand.
